Blank lines part the entries; values can stand above or below the molecule they belong to.
Key:
[1] = Pharmacokinetic parameters in rats after a single intragastric dose; assay type: in vivo; settings: for AUC(0-inf) / Cmax / Tmax / half-life: rat, po, male rats, intragastric, single dose 5 mg/kg, plasma
Protocol: Healthy male adult rats (7-9 weeks old) were used in this study. Each group of animals (3 male rats) was intragastrically administered once at a single dose of 5 mg/kg. The animals in the intragastric administration group were fasted overnight before this study. The fasting time period was from 10 hours before administration to 4 hours after administration.
Blood samples were taken at 0.25, 0.5, 1, 2, 4, 6, 8 and 24 h after administration. The animals were anesthetized with isoflurane using an animal anesthesia machine, and then 0.3 mL whole blood samples were taken from the fundus venous plexus. The blood samples were placed in heparin anticoagulant tubes, and centrifuged for 5 min at 4° C. and 4000 rpm. The resulting plasmas were transferred to centrifuge tubes, and stored at −80° C. until analysis.
Verified LC-MS/MS method was used to analyze the plasma samples. Plasma concentration-time data of animals were analyzed using WinNonlin (Professional Edition, version 6.3; Pharsight Company) software. The non-compartmental model was introduced for concentration analysis. The pharmacokinetic parameters of the compounds were calculated.

IDH2 (R172K, 40-end) = IDH2 (R172K, 40-end) (Homo sapiens (Human), UniProt P48735, R172K); test: IDH2 inhibitory activity determined by decrease of NADPH (diaphorase/resazurin fluorescence); assay type: biochemical; settings: 120 min pre-incubation with enzyme and NADPH, 120 min reaction with α-KG
Protocol: The inhibitory activity of the compounds of the present application against IDH2 (R172K, 40-end) was determined by using the following method, which was expressed as IC50 values, i.e., the concentrations of the compounds required to achieve 50% inhibition of IDH2 activity.
The inhibitory activity of a compound against IDH2 (R172K, 40-end) was determined by the decrease of a helper factor NADPH. The test compound was pre-incubated with an enzyme and NADPH, and then a reaction was initiated by the addition of α-KG, and performed for 120 minutes under a linear condition. Then, the reaction was terminated by the addition of diaphorase (lipoamide dehydrogenase) and the corresponding substrate resazurin. Diaphorase terminated the IDH2m reaction by decreasing the available helper factor NADPH, which oxidized NADPH to NADP, and reduced resazurin to highly fluorescent resorufin. The amount of remaining helper factor NADPH after a specific reaction time was quantified via an easily detectable fluorophore.
Specifically, 2.5 μl of a 3-fold gradient diluted test compound was added to a 384-well plate, and then 5 μl of a reaction buffer (20 mM Tris-HCl, PH7.5; 150 mM NaCl; 10 mM MgCl2; 10 mM MnCl2; 0.4 mg/ml BSA and 2 mM DTT) containing 80 nM IDH2 (R172K, 40-end) and 40 μM NADPH was added. Then, the resulting test mixture was incubated for 120 minutes at a temperature of 23° C., and then 2.5 μl of the reaction buffer containing 4 mM α-KG was added to initiate the reaction. After incubating for 120 minutes at room temperature, 5 μl of a termination mixture (0.4 U/ml diaphorase and 40 μM resazurin) prepared with the reaction buffer was added to convert resazurin to resorufin to determine the remaining NADPH. After incubating for 10 minutes at a temperature of 23° C., a fluorescence value was determined through Flexstation 3 at Ex535/Em595.

[2] = rats, same dose (5 mg/kg intragastric)

Chain of IDH2 (R172K, 40-end) (P48735 40-452 R172K): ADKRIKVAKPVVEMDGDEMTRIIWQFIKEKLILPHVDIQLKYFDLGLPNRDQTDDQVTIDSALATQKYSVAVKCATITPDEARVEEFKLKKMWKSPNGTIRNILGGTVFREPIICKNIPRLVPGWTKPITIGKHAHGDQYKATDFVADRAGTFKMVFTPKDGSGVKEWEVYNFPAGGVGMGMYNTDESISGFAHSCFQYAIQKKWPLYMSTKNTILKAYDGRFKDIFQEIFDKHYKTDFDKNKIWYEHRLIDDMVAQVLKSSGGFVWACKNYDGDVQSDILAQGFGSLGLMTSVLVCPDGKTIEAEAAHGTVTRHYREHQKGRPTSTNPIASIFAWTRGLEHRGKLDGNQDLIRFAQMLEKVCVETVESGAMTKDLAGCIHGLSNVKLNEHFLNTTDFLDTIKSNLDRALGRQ

- AUC(0-inf) [1]: 5380 ng·h/mL
- Cmax [1]: 479 ng/mL
- Tmax [1]: 4 h
- half-life [1]: 3.73 h
Compound: CC(C)(O)CNc1nc(Nc2ccnc(C(F)(F)F)c2)nc(-c2cccc(C(F)(F)F)n2)n1 [AG-221, reference compound]

- IC50 (IDH2 (R172K, 40-end)): 22.4 nM
Compound: CCONc1nc(Nc2ccnc(C(F)(F)F)c2)nc(-c2cccc(C(F)(F)F)n2)n1 [Example 1, 4-(ethoxyamino)-6-(6-(trifluoromethyl)pyridin-2-yl)-N-(2-(trifluoromethyl)pyridin-4-yl)-1,3,5-triazin-2-amine]

Compound: CC(C)(C)ONc1nc(Nc2ccnc(C(F)(F)F)c2)nc(-c2cccc(C(F)(F)F)n2)n1 [Example 3, 4-(tert-butoxyamino)-6-(6-(trifluoromethyl)pyridin-2-yl)-N-(2-(trifluoromethyl)pyridin-4-yl)-1,3,5-triazin-2-amine]
- IC50 (IDH2 (R172K, 40-end)): 31.7 nM
- AUC(0-inf) [1]: 10800 ng·h/mL
- Cmax [1]: 589 ng/mL
- Tmax [1]: 5 h
- half-life [1]: 12 h
- half-life compared with AG-221 [1, 2]: longer half-life
- metabolism in vivo compared with AG-221 [1, 2]: better metabolism in vivo
- plasma concentration compared with AG-221 [1, 2]: higher plasma concentration

- IC50 (IDH2 (R172K, 40-end)): 38.2 nM
Compound: FC(F)(F)c1cc(Nc2nc(NOCC3CC3)nc(-c3cccc(C(F)(F)F)n3)n2)ccn1 [Example 4, 4-((cyclopropylmethoxy)amino)-6-(6-(trifluoromethyl)pyridin-2-yl)-N-(2-(trifluoromethyl)pyridin-4-yl)-1,3,5-triazin-2-amine]

- IC50 (IDH2 (R172K, 40-end)): 46.9 nM
Compound: CC(C)(O)CONc1nc(Nc2ccnc(C(F)(F)F)c2)nc(-c2cccc(C(F)(F)F)n2)n1 [Example 6, 2-methyl-1-(((4-(6-(trifluoromethyl)pyridin-2-yl)-6-((2-(trifluoromethyl)pyridin-4-yl)amino)-1,3,5-triazin-2-yl)amino)oxy)propan-2-ol]

- IC50 (IDH2 (R172K, 40-end)): 154 nM
Compound: CC(C)(CO)ONc1nc(Nc2ccnc(C(F)(F)F)c2)nc(-c2cccc(C(F)(F)F)n2)n1 [Example 7, 2-methyl-2-(((4-(6-(trifluoromethyl)pyridin-2-yl)-6-((2-(trifluoromethyl)pyridin-4-yl)amino)-1,3,5-triazin-2-yl)amino)oxy)propan-1-ol]

- IC50 (IDH2 (R172K, 40-end)): 239 nM
Compound: FC(F)(F)c1cc(Nc2nc(NOCc3ccccc3)nc(-c3cccc(C(F)(F)F)n3)n2)ccn1 [Example 8, 4-((benzyloxy)amino)-6-(6-(trifluoromethyl)pyridin-2-yl)-N-(2-(trifluoromethyl)pyridin-4-yl)-1,3,5-triazin-2-amine]

Compound: CC(C)(C)ONc1nc(Nc2ccnc(C(F)(F)F)c2)nc(-c2ccccc2)n1 [Example 10, 4-(tert-butoxyamino)-6-phenyl-N-(2-(trifluoromethyl)pyridin-4-yl)-1,3,5-triazin-2-amine]
- IC50 (IDH2 (R172K, 40-end)): 51.4 nM
